Assay results published in PubChem BioAssay (NCI).
Where “and” joins values, the source holds several entries; their conditions need not be identical. Equal entries are not always repeated.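 Growth conditions: 96-well plates. Treatment: test compound, 48 hours, 5 concentrations. Analysis: linear interpolation between bracketing concentrations; unreached endpoints set to highest concentration. GI50: concentration for 50% inhibition of growth. At the TGI there is no net growth.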

Each compound was assayed on ACHN renal (assay: inhibition of tumour cell growth, NCI panel, 48 h).
CCCCCCCC(=O)SCC/C=C/[C@@H]1CC(=O)NCc2cccc(n2)C2=N[C@@](C)(CS2)C(=O)N[C@@H](C(C)C)C(=O)N1 gave a GI50 of 2.71 µM and a TGI of over 33.3 µM. C[C@@H](CS(C)(=O)=O)Nc1ncc2cc(Oc3ccc(F)cc3F)c(=O)n(C)c2n1 showed a GI50 of over 25 µM and a TGI of over 25 µM. Compound CC(C)=CCCc1c(C)ccc2c1C(=O)C(=O)C(C(C)C)=C2 has a TGI of 6.84 µM. Work on COc1cc2c(c(OC)c1O)C(=O)C(OC)C(c1ccc(O)c(O)c1)O2 (centres undefined) yielded a GI50 of 0.662 µM and a TGI of over 100 µM. For Cn1ccnc1C(=O)/C=C/c1ccc(CC(=O)Nc2ccc(Br)cc2)cc1, the GI50 was 4.4 µM and the TGI was over 16.7 µM. Work on COC(=O)[C@@H](C)C[C@H](Cc1ccc(F)cc1)NC(=O)c1csc([C@@H](C[C@H](C(C)C)N(C)C(=O)[C@@H](NC(=O)[C@H]2CCCCN2C)C(C)C)OC(C)=O)n1 yielded a GI50 of 0.134 µM and a TGI of over 16.7 µM. CCOC(=O)COc1cccc2c1C(=O)CCO2 was tested, and the TGI was over 100 µM. Nc1ccc(C(=O)N/C(=C\c2ccc3c(c2)OCO3)c2nc3[nH]c(=S)[nH]c(=O)c3[nH]2)cc1 was tested, and the TGI was over 100 µM. O[C@H]1[C@H]2c3cc4c(cc3CN3CCC(=C[C@@H]1O)[C@H]23)OCO4 was tested, and the TGI was 7.07 µM. Compound COC(=O)[C@@]12C3=NO[C@]1(C(=O)OC)C(O[Si](C)(C)C(C)(C)C)[C@H]1OC(C)(C)O[C@H]1[C@@H]2C(OCc1ccccc1)CC3 (some centres undefined) has a TGI of 28 µM. O=C(N/C(=C\c1cc(Cl)ccc1Cl)c1nc2[nH]c(=S)[nH]c(=O)c2[nH]1)c1ccccc1 gave a TGI of over 100 µM. With CN(CC(=O)O)S(=O)(=O)c1ccc2ccccc2c1 the TGI was over 100 µM. O=[S@@]1Nc2ccc(Br)cc2S1 showed a TGI of over 100 µM. COc1ccc2c(c1)C1(C=N2)CCN(C(C)=O)CC1 showed a TGI of over 100 µM. O=C1NC2(CCCCC2)C2CCCCC(O)C12 (centres undefined) gave a TGI of over 100 µM. CCOC(=O)C1=C(C)CC2C(=O)OC(=O)C2C1(C)C (centres undefined) showed a TGI of over 100 µM. Compound CC1=C(C(=O)Nc2ccc(F)c(Cl)c2)C(c2ccc(Cl)cc2)NC(=O)N1 (centres undefined) has a GI50 of 22 µM and a TGI of 63 µM. For Oc1ccc(Cl)cc1-c1cc(-c2ccccc2Cl)[nH]n1, the GI50 was 8.17 µM and the TGI was over 100 µM. Compound CNC(=O)c1cc(Oc2ccc3nc(NC(=O)Nc4ccc(Cl)c(C(F)(F)F)c4)sc3c2)ccn1 has a GI50 of 1.85 µM and a TGI of 3.8 µM. Work on COc1ccc2nc3cc(Cl)ccc3c(Sc3ccccc3[N+](=O)[O-])c2c1 yielded a TGI of over 100 µM. In the case of O=C(O)C(Cc1ccccc1)N1C(=O)N/C(=C\c2ccc(F)cc2)C1=O (centres undefined), the TGI is reported as over 100 µM. Compound C/C(CCn1[nH]c(=O)ccc1=O)=N\O has a TGI of over 100 µM. CC(=O)N1[C@H](C(=O)O)CS[C@H]1c1ccncc1 was tested, and the TGI was over 100 µM. Compound COc1ccc(C2=CSc3cc(Cl)c(C)cc3S(=O)(=O)N2C(C)=O)cc1 has a GI50 of 18.8 µM and a TGI of 43.7 µM. Compound CC(=O)OC1COC(n2c(=S)n(-c3ccc(C)cc3)c(=O)c3ccccc32)C(OC(C)=O)C1OC(C)=O (centres undefined) has a TGI of over 100 µM. In the case of COc1cccc(NC(=O)CC(=O)n2nc(C)c(N=Nc3ccccc3)c2C)c1, the TGI is reported as over 100 µM. CC(=O)[O][Hg][c]1c(N)c(C)cc(C)c1F was tested, and the GI50 was 1.61 µM and the TGI was 3.08 µM. With O=C(O)CCSC(=O)Nc1cccc(F)c1 the TGI was over 100 µM.

Each compound was assayed on HL-60(TB) leukemia (assay: inhibition of tumour cell growth, NCI panel, 48 h).
For NC(CSC(c1ccccc1)(c1ccccc1)c1ccc2c(c1)OCO2)C(=O)O (centres undefined), the GI50 was 0.313 µM and the TGI was 0.836 µM. Work on C=CCc1cc(OC)c2c(c1)C(O)CC(c1ccc(OC)c(OC)c1)O2 (centres undefined) yielded a TGI of over 100 µM. O=C(NCCNc1nccc(-c2c(-c3cccc(O)c3)nc3sccn23)n1)c1ccccc1O showed a GI50 of 3.38 µM and a TGI of over 29.4 µM. CCCCCCCC(=O)SCC/C=C/[C@@H]1CC(=O)NCc2cccc(n2)C2=N[C@@](C)(CS2)C(=O)N[C@@H](C(C)C)C(=O)N1 gave a GI50 of 0.509 µM and a TGI of over 33.3 µM. In the case of C[C@@H](CS(C)(=O)=O)Nc1ncc2cc(Oc3ccc(F)cc3F)c(=O)n(C)c2n1, the GI50 is reported as over 25 µM and the TGI is reported as over 25 µM. With CC(C)=CCCc1c(C)ccc2c1C(=O)C(=O)C(C(C)C)=C2 the TGI was 5.03 µM. COc1cc2c(c(OC)c1O)C(=O)C(OC)C(c1ccc(O)c(O)c1)O2 (centres undefined) gave a GI50 of 0.072 µM and a TGI of 3.62 µM. In the case of Cn1ccnc1C(=O)/C=C/c1ccc(CC(=O)Nc2ccc(Br)cc2)cc1, the GI50 is reported as 4.58 µM and the TGI is reported as over 16.7 µM. For COC(=O)[C@@H](C)C[C@H](Cc1ccc(F)cc1)NC(=O)c1csc([C@@H](C[C@H](C(C)C)N(C)C(=O)[C@@H](NC(=O)[C@H]2CCCCN2C)C(C)C)OC(C)=O)n1, the TGI was 0.00229 µM and 0.00952 µM. N#CC(C#N)=c1ccc(=C2NCC3CCCN23)cc1 (centres undefined) gave a TGI of over 100 µM.
